Measured values from patent publication US5430148A, “Antiproliferative quinazolines” (Agouron Pharmaceuticals, Inc., priority 1992, dated 1995).
Where two headings read alike, the source gives them in different places.

Columns and labels:
[1] = target: E. coli TS (thymidylate synthase) (Escherichia coli, UniProt P0A884); assay: Inhibition constants against 5,10-methylenetetrahydrofolate for thymidylate synthase, E. coli enzyme (tritium release); format: biochemical
Description: (§1) Determination of Inhibition Constants Against 5,10-Methylenetetrahydrofolate for the Enzyme Thymidylate Synthase
(§2) Inhibition constants, Ki, slope and Ki, intercept [W. W. Cleland, Biochim. Biophys. […] The cofactor was present as the variable substrate under conditions of saturating radiolabelled 2'-deoxyuridine 5-monophosphate (dUMP). […] Assays of human TS also contained 1-5 μg/mL bovine serum albumin to stabilize the protein. Reactions were initiated by the addition of enzyme and were carried out for 5 minutes at 24° C., and then quenched by the addition of charcoal (15 mg in 0.1 mL H2 O). The quenched samples were centrifuged at 10,000 rpm for 12-15 min at […] to remove unreacted dUMP which had bound to the charcoal, and 0.1 mL of the supernatant was counted by liquid scintillation in the presence of 5 mL ecolume to determine the release of tritium label from the 5-position of the dUMP. […] Experimental results were analyzed by EZ-FIT, a nonlinear regression analysis program (Perrella Scientific, Springfield, Pa.) which was used to fit all data points simultaneously to a mixed noncompetitive inhibition scheme.

[2] = tested on: CCRF-CEM cells; assay: Inhibition of growth of tumor cells, CCRF-CEM human lymphoblastic leukemia (MTT); format: cell-based; settings: for IC50: read-out: Cell Culture IC50, CCRF-CEM; for inhibition at 50 µM: read-out: growth inhibition, CCRF-CEM
Description: (§3) In Vitro Testing to Determine Inhibition of Growth of Tumor Cells
(§4) Growth was measured over 3 days (L1210) or 5 days (CCRF-CEM, GC3 /M TK^-) of continuous exposure to varying concentrations of each test compound, added 4 h. after initial cell plating, by the MTT-tetrazolium reduction assay of T. J. Mosmann [J. Immunol. Meth. […] Water insoluble derivatives were dissolved in DMSO and diluted to a final concentration of 0.5% solvent in cell cultures.

[3] = target: human TS (thymidylate synthase) (Homo sapiens, UniProt P04818); assay: Inhibition constants against 5,10-methylenetetrahydrofolate for thymidylate synthase, human enzyme (tritium release); format: biochemical; settings: cofactor as variable substrate, pH 7.6, 24° C.
Description: as §1, §2

[4] = tested on: GC3/M TK- cells; assay: Inhibition of growth of tumor cells, thymidine kinase-deficient human colon adenocarcinoma GC3/M TK- (MTT); format: cell-based; settings: for IC50: read-out: Cell Culture IC50, GC3-M (TK-)
Description: as §3, §4

[5] = tested on: L1210 murine leukemia cells; assay: Inhibition of growth of tumor cells, L1210 murine leukemia (MTT); format: cell-based; settings: for IC50: read-out: Cell Culture IC50, L1210; for inhibition at 50 µM: read-out: growth inhibition, L1210
Description: as §3, §4

[6] = Homo sapiens, CCRF-CEM, 120 h, 5 days continuous exposure, MTT
[7] = read-out: Ki Data, human thymidylate synthase
[8] = Homo sapiens, GC3/MTK-, 120 h, 5 days continuous exposure, MTT
[9] = Mus musculus, L1210, 72 h, 3 days continuous exposure, MTT
[10] = Ki Data, human thymidylate synthase
[11] = Homo sapiens, CCRF-CEM, 120 h, @ > 50 μM, 5 days
[12] = Mus musculus, L1210, 72 h, @ > 50 μM, 3 days
[13] = 5 days continuous exposure, MTT
[14] = 3 days continuous exposure, MTT

Sequence of E. coli TS (thymidylate synthase) (P0A884 whole entry): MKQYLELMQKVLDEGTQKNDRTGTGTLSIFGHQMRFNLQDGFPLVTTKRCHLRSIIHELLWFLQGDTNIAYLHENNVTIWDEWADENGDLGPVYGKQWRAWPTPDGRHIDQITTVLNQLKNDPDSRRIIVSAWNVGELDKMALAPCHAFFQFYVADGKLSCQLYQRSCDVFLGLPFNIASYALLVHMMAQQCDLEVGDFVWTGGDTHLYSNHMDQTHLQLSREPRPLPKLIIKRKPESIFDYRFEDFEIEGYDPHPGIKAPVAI
Sequence of human TS (thymidylate synthase) (P04818 2-313 limits assumed): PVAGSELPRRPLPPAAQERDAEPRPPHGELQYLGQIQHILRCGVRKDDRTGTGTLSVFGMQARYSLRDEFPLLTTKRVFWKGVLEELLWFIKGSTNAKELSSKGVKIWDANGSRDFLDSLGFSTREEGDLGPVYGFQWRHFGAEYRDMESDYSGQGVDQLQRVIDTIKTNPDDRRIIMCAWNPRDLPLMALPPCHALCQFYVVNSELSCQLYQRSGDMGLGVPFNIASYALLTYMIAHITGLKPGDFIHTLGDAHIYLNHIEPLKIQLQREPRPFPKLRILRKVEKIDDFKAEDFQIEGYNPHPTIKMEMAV

| SMILES | Ki [1] [µM] | IC50 [2, 6] [µM] | Ki [3, 7] [µM] | IC50 [4, 8] [µM] | IC50 [5, 9] [µM] | Ki [3, 10] [µM] | other results |
| --- | --- | --- | --- | --- | --- | --- | --- |
| Cc1nc(O)c2c(Oc3ccccc3)cccc2n1 [Compound 1A] | > 100 |  |  |  |  |  |  |
| Cc1nc(O)c2c(Sc3ccccc3)cccc2n1 [Compound 2A] | > 10 |  |  |  |  |  |  |
| Cc1nc2cccc(Cn3ccc4cc(Cl)ccc43)c2c(=O)[nH]1 [Compound 3A, 5-Chloro-N-[(3,4-dihydro-2-methyl-4-oxo-5-quinazolyl)methyl]indole] | > 3 | > 12.3 | > 3 | > 12.7 |  |  | inhibition at 12.3 µM ([2]; Homo sapiens, CCRF-CEM, 120 h, > 12.3 μM, 5 days): 10%; inhibition at 12.7 µM ([4]; Homo sapiens, GC3/MTK-, 120 h, > 12.7 μM, 5 days): 20% |
| Cc1nc2cccc(C(O)(c3ccccc3)c3ccccc3)c2c(=O)[nH]1 [Compound 6A, 3,4-Dihydro-5-(α-diphenyl-hydroxymethyl)-2-methyl-4-oxo-quinazoline] | > 10 | 4 | > 10 | > 4.98 | 2.3 |  |  |
| Cc1nc2cccc(Sc3ccncc3)c2c(=O)[nH]1 [Compound 7A] | 38 ± 5 | > 26.9 | 2.1 ± 0.5 | > 26.9 |  |  | inhibition at 26.9 µM ([2]; Homo sapiens, CCRF-CEM, 120 h, @ > 26.9 μM, 5 days): 37%; growth inhibition, GC3-M (TK-) ([4]; @ > 26.9 μM, 5 days): none; growth inhibition, L1210 ([5]; @ 20 um, 3 days): 68% |
| Cc1nc2ccc(C)c(Sc3ccncc3)c2c(=O)[nH]1 [Compound 8A, 3,4-Dihydro-2,6-dimethyl-4-oxo-5-(4-pyridylthio)-quinazoline] | 0.89 ± 0.28 | 5.2 |  | 6 | 3.5 | 0.062 |  |
| Cc1nc2ccc(C)c(Sc3ccc(S(=O)(=O)c4ccccc4)cc3)c2c(=O)[nH]1 [Compound 9A] |  | 2.1 |  | 4.5 | 1.8 |  |  |
| Cc1nc2ccc(C)c(Sc3ccc([N+](=O)[O-])cc3)c2c(=O)[nH]1 [Compound 10A] | 0.75 ± 0.08 | 2.9 |  | > 4 | 3 | 0.083 ± 0.011 |  |
| Cc1nc2ccc(C)c(Sc3nnc(C)s3)c2c(=O)[nH]1 [Compound 11A] | 21 ± 13 | > 3.33 | 2 ± 0.4 | > 3.33 | > 3.33 |  | inhibition at 3.33 µM ([2]; Homo sapiens, CCRF-CEM, 120 h, @ > 3.33 μM, 5 days): 17%; growth inhibition, GC3-M (TK-) ([4]; @ > 3.33 μM, 5 days): none; growth inhibition, L1210 ([5]; @ > 3.33 μM, 3 days): none |
| Cc1cc(Sc2c(C)ccc3nc(C)[nH]c(=O)c23)ccn1 [Compound 12A, 3,4-Dihydro-2,6-dimethyl-4-oxo-5-[4-(2-picolinylthio)]-quinazoline] | 0.55 ± 0.05 | 4.2 |  | 5 | 4.2 | 0.07 ± 0.001 |  |
| COc1ccc2nc(C)[nH]c(=O)c2c1Sc1ccncc1 [Compound 13A, 3,4-Dihydro-6-methoxy-2-methyl-4-oxo-5-(4-pyridylthio)-quinazoline] |  | 26 |  | 32 | 21 |  |  |
| Cc1ccc2nc(N)[nH]c(=O)c2c1Sc1ccncc1 [Compound 14A, 2-Amino-3,4-dihydro-6-methyl-4-oxo-5-(4-pyridylthio)-quinazoline] | 0.15 ± 0.03 | 0.81 |  | 1 | 1 |  |  |
| Cc1nc2ccc(O)c(Sc3ccncc3)c2c(=O)[nH]1 [Compound 15A, 3,4-Dihydro-6-hydroxy-2-methyl-4-oxo-5-(4-pyridylthio)-quinazoline] |  | > 50 | 19 ± 11 | > 50 | > 50 |  | inhibition at 50 µM [2, 11]: 40%; inhibition at 50 µM ([4]; Homo sapiens, GC3/MTK-, 120 h, @ > 50 μM, 5 days): 4%; inhibition at 50 µM [5, 12]: 27% |
| COc1cc(Sc2c(C)ccc3nc(C)[nH]c(=O)c23)ccn1 [Compound 16A, 3,4-Dihydro-2,6-dimethyl-4-oxo-5-[4-(6-methoxypyridylthio)]quinazoline] | 0.76 ± 0.12 |  |  | > 5 |  | 0.048 ± 0.006 |  |
| Cc1nc2ccc(C)c(Sc3ccnc(C(F)(F)F)c3)c2c(=O)[nH]1 [Compound 17A, 3,4-Dihydro-2,6-dimethyl-4-oxo-5-[4-(6-trifluoromethylpyridylthio)]-quinazoline] |  |  | 0.13 ± 0.03 |  |  |  |  |
| Cc1ccc2nc(N)[nH]c(=O)c2c1Sc1ccnc(C(F)(F)F)c1 [Compound 18A, 2-Amino-3,4-dihydro-6-methyl-4-oxo-5-[4-(6-trifluoromethylpyridylthio)]-quinazoline] |  | > 2 |  | > 2 | 1.8 |  | inhibition at 2 µM ([2]; Homo sapiens, CCRF-CEM, 120 h, @ > 2.0 μM, 5 days): 33%; inhibition at 2 µM ([4]; Homo sapiens, GC3/MTK-, 120 h, @ > 2.0 μM, 5 days): 33% |
| Cc1nc2cccc(Sc3ccccn3)c2c(=O)[nH]1 [Compound 20A] | 311 ± 99 | > 50 |  | > 50 | > 50 | 61 ± 17 | inhibition at 50 µM [2, 11]: 20%; growth inhibition, GC3-M (TK-) ([4]; @ > 50 μM, 5 days): none; inhibition at 50 µM [5, 12]: 40% |
| Cc1nc2ccc(C)c(Sc3cccnc3)c2c(=O)[nH]1 [Compound 21A] |  |  |  |  |  | 190 ± 25 | IC50 ([2]; Homo sapiens, CCRF-CEM, 120 h): > 50 µM; inhibition at 50 µM ([2]; Homo sapiens, CCRF-CEM, 120 h): 42%; growth inhibition, GC3-M (TK-) ([4]; @ > 50 μM, 5 days): none; IC50 ([4]; Homo sapiens, GC3/MTK-, 120 h): > 50 µM; IC50 ([5]; Mus musculus, L1210, 72 h): > 50 µM; inhibition at 50 µM ([5]; Mus musculus, L1210, 72 h): 28% |
| Cc1nc2cccc(Sc3cc[n+](Cc4ccccc4)cc3)c2c(=O)[nH]1 [Compound 22A] | 9.3 ± 1.6 | > 2.5 | 1.1 ± 0.3 | > 2.5 | > 2.5 |  | growth inhibition, CCRF-CEM ([2]; @ > 2.5 μM, 5 days): none; growth inhibition, GC3-M (TK-) ([4]; @ > 2.5 μM, 5 days): none; inhibition at 2.5 µM ([5]; Mus musculus, L1210, 72 h, @ > 2.5 μM, 3 days): 4% |
| Cc1nc2ccc(C)c(Sc3ccncc3)c2c(=O)[nH]1 [Compound 23A] |  |  |  |  |  | 0.13 ± 0.009 | IC50 [2, 13]: 5.1 µM; IC50 [4, 13]: 6.1 µM; IC50 [5, 14]: 3.5 µM |
| Cc1ccc2nc(N)[nH]c(=O)c2c1Sc1ccncc1 [Compound 24A] |  | 1.1 |  | 1.2 | 0.55 |  |  |
| Cc1ccc2nc(N)[nH]c(=O)c2c1Sc1ccncc1 [Compound 25A] |  |  |  |  |  |  | IC50 [2, 13]: 1.1 µM; IC50 [4, 13]: 1.7 µM; IC50 [5, 14]: 0.59 µM |
| Cc1nc2ccc(C)c(Sc3ccnc(N(C)C)c3)c2c(=O)[nH]1 [Compound 26A, 3,4-Dihydro-2,6-dimethyl-4-oxo-5-[4-(6-dimethylaminopyridylthio)]-quinazoline] |  | 10.5 |  | 18 | 4.05 | 0.079 |  |
| Cc1nc2ccc(C)c(Sc3ccc(C(=O)N[C@@H](CCC(=O)O)C(=O)O)cc3)c2c(=O)[nH]1 [Compound 27A, N-[4-((3,4-Dihydro-2,6-dimethyl-4-oxo-5-quinazolinyl)thio)benzoyl]-L-glutamic acid] |  | 0.99 |  | 4.1 | 1.05 | 0.00795 |  |
| Cc1nc2ccc(C)c(Sc3ccc(C(=O)O)cc3)c2c(=O)[nH]1 [Compound 28A, 4-[(3,4-Dihydro-2,6-dimethyl-4-oxo-5-quinazolinyl)thio]-benzoic acid] |  | > 50 |  | > 50 | > 50 | 0.115 | growth inhibition, CCRF-CEM ([2]; @ > 50 μM, 5 days): none; growth inhibition, GC3-M (TK-) ([4]; @ > 50 μM, 5 days): none; inhibition at 50 µM [5, 12]: 27% |
| Cc1nc2ccc(C)c(Sc3ccnnc3)c2c(=O)[nH]1 [Compound 29A] |  |  | 0.12 ± 0.02 | > 12.5 |  |  |  |
| Cc1ccc2nc(N)[nH]c(=O)c2c1Sc1ccnnc1 [Compound 30A] |  | 0.88 | 0.011 | 1.5 | 1.6 |  |  |
| Cc1nc2cccc(Cn3cncc3-c3ccccc3)c2c(=O)[nH]1 [Compound 31A] | 21 ± 6 | > 50 | 51 ± 2.2 | > 50 | 48 |  |  |
